What was measured:
[1] = physchem; settings: pH 2.7
Description: The LC-MS determination in the acidic range is effected at pH 2.7 with 0.1% aqueous formic acid and acetonitrile (contains 0.1% formic acid) as eluents; linear gradient from 10% acetonitrile to 95% acetonitrile. • ^[b] The LC-MS determination in the neutral range is effected at pH 7.8 using 0.001 molar aqueous ammonium hydrogencarbonate solution and acetonitrile as eluents; linear gradient from 10% acetonitrile to 95% acetonitrile.
The calibration is effected with unbranched alkan-2-ones (having 3 to 16 carbon atoms) with known log P values (log P values determined on the basis of the retention times by linear interpolation between two successive alkanones).

[2] = test system: Phytophthora infestans; format: in vivo, Phytophthora infestans on young tomato plants; settings: protective, tomato plants, active ingredient concentration 100 ppm, evaluation 7 days after inoculation; 0% = control, 100% = no infection

Structure (SMILES) | chromatographic logP [1] | Eff. % [2] [%]
CC(C)(C)[Si](C)(C)OCC(=O)N1CCC(c2nc(C3=NOC(c4ccccc4OS(C)(=O)=O)C3)cs2)CC1 (stereo not drawn) [X-2, 2-(3-{2-[1-({[tert-butyl(dimethyl)silyl]oxy}acetyl)piperidin-4-yl]-1,3-thiazol-4-yl}-4,5-dihydro-1,2-oxazol-5-yl)phenyl methanesulphonate] | 4.14 | 
CC(C)=NOCC(=O)N1CCC(c2nc(C3=NOC(c4ccccc4OS(C)(=O)=O)C3)cs2)CC1 (stereo not drawn) [I-12, 2-{3-[2-(1-{[(Propan-2-ylideneamino)oxy]acetyl}piperidin-4-yl)-1,3-thiazol-4-yl]-4,5-dihydro-1,2-oxazol-5-yl}phenyl methanesulphonate] | 2.36 | 
CN(C)CC(=O)N1CCC(c2nc(C3=NOC(c4ccccc4OS(C)(=O)=O)C3)cs2)CC1 (stereo not drawn) [X-1, 2-(3-{2-[1-(N,N-Dimethylglycyl)piperidin-4-yl]-1,3-thiazol-4-yl}-4,5-dihydro-1,2-oxazol-5-yl)phenyl methanesulphonate] | 1.48 | 
CS(=O)(=O)Oc1ccccc1C1CC(c2csc(C3CCN(C(=O)CO)CC3)n2)=NO1 (stereo not drawn) [XXVIIa-142, 2-{3-[2-(1-glycoloylpiperidin-4-yl)-1,3-thiazol-4-yl]-4,5-dihydro-1,2-oxazol-5-yl}phenyl methanesulphonate] | 1.88 | 
CS(=O)(=O)Oc1cc(C(F)(F)F)ccc1C1CC(C(=O)CCl)=NO1 (stereo not drawn) [VIIa-a-143, 2-[3-(Chloroacetyl)-4,5-dihydro-1,2-oxazol-5-yl]-5-(trifluoromethyl)phenyl methanesulphonate] | 3.25 | 
C#CCOc1ccccc1C1CC(C(C)=O)=NO1 (stereo not drawn) [VIIIa-a-81, 1-[5-(2-{[prop-2-yn-1-yl]oxy}phenyl)-4,5-dihydro-1,2-oxazol-3-yl]ethanone] | 4.41 | 
CC(C)(C)OC(=O)N1CCC(c2nc(C3=NOC(c4ccc(C(F)(F)F)cc4OS(C)(=O)=O)C3)cs2)CC1 (stereo not drawn) [XVI-143, tert-Butyl 4-[4-(5-{2-[(methylsulphonyl)oxy]-4-(trifluoromethyl)phenyl}-4,5-dihydro-1,2-oxazol-3-yl)-1,3-thiazol-2-yl]piperidine-1-carboxylate] | 4.36 | 
CS(=O)(=O)Oc1ccccc1C1CC(c2csc(C3CCN(C(=O)CCl)CC3)n2)=NO1 (stereo not drawn) [Xc-a-142, 2-(3-{2-[1-(Chloroacetyl)piperidin-4-yl]-1,3-thiazol-4-yl}-4,5-dihydro-1,2-oxazol-5-yl)phenyl methanesulphonate] | 2.42 | 
CC(=O)OCC(=O)N1CCC(c2nc(C3=NOC(c4ccccc4OS(C)(=O)=O)C3)cs2)CC1 (stereo not drawn) [X-3, 2-{4-[4-(5-{2-[(Methylsulphonyl)oxy]phenyl}-4,5-dihydro-1,2-oxazol-3-yl)-1,3-thiazol-2-yl]piperidin-1-yl}-2-oxoethyl acetate] | 2.18 | 
CC(C)=NOCC(=O)N1CCC(c2nc(-c3cc(-c4ccccc4C=O)on3)cs2)CC1 [I-8, 2-{3-[2-(1-{[(Propan-2-ylideneamino)oxy]acetyl}piperidin-4-yl)-1,3-thiazol-4-yl]-1,2-oxazol-5-yl}benzaldehyde] | 2.45 | 89
COC(C)(OC)C(CC(O)c1ccccc1OCC#C[Si](C)(C)C)=NO (stereo not drawn) [1-hydroxyl-4,4-dimethoxy-1-(2-{[3-(trimethylsilyl)prop-2-yn-1-yl]oxy}phenyl)pentan-3-one oxime] | 3.19 | 
